Experimental data: ChEMBL document CHEMBL4420076, “Amylin and calcitonin receptor agonist” (2017)
Numbered stars: 1 amine (or outer) side, 2 acyl side, 3 side chain; on linkers, the order of the positions; unused ones are H or OH. Square brackets hold non-standard residues; d marks the D form. Peptide text beside a SMILES is read from it. * marks the point of attachment. C20 diacid = O=C(O)CCCCCCCCCCCCCCCCCCC(=O)*; C16 diacid = O=C(O)CCCCCCCCCCCCCCC(=O)*; γGlu = O=C(O)[C@H](CCC(=O)[*:2])N[*:1]

Assays:
Rattus norvegicus [1] = experiment: Reduction in food intake in Sprague-Dawley rat at 3 nmol/kg measured 0 to 24 hrs post dose relative to control; type: functional; parameters: scale not given: the % may be the effect or the level left
Rattus norvegicus [2] = experiment: Reduction in food intake in Sprague-Dawley rat at 3 nmol/kg measured 24 to 48 hrs post dose relative to control; type: functional; parameters: scale not given: the % may be the effect or the level left
[3] = target: T1, Amylin receptor AMY3; CALCR/RAMP3 (Homo sapiens, UniProt O60896+P30988); experiment: Agonist activity at human amylin receptor expressed in BHK570 cells co-expressing RAMP3 assessed as increase in intracellular cAMP concentration incubated for 3 hrs in absence of albumin by CRE luciferase reporter gene assay; type: functional, cell-based
T1 sequence (P30988 whole entry): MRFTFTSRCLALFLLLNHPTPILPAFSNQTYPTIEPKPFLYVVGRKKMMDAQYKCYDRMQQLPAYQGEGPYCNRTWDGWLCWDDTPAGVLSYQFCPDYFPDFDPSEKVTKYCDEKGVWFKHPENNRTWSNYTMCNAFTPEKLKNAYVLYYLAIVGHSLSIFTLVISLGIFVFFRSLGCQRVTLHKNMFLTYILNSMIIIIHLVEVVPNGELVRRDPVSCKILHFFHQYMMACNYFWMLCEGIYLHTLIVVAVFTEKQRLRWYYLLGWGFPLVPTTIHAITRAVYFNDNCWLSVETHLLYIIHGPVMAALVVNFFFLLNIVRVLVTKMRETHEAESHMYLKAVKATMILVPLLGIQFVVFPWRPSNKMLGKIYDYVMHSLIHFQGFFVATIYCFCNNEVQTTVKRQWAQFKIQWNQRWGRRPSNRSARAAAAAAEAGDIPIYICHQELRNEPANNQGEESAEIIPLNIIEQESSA
T1 sequence (O60896 whole entry): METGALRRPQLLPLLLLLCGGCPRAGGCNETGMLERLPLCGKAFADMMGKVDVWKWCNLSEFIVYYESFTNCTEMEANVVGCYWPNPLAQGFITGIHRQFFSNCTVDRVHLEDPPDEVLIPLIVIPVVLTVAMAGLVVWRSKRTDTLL

Calcitonin receptor [4] = target: T2, Calcitonin receptor (Homo sapiens, UniProt P30988); experiment: Agonist activity at human calcitonin receptor expressed in BHK570 cells assessed as increase in intracellular cAMP concentration incubated for 3 hrs in absence of albumin by CRE luciferase reporter gene assay; type: functional, cell-based
T2 sequence (P30988 whole entry): T1 sequence (P30988 whole entry)

[5] = target: T1, Amylin receptor AMY3; CALCR/RAMP3; experiment: Agonist activity at human amylin receptor expressed in BHK570 cells co-expressing RAMP3 assessed as increase in intracellular cAMP concentration incubated for 3 hrs in presence of 10% FBS by CRE luciferase reporter gene assay; type: functional, cell-based
Calcitonin receptor [6] = target: T2, Calcitonin receptor; experiment: Agonist activity at human calcitonin receptor expressed in BHK570 cells assessed as increase in intracellular cAMP concentration incubated for 3 hrs in presence of 10% FBS by CRE luciferase reporter gene assay; type: functional, cell-based
[7] = Solubility in 100 mM glycylglycine buffer at pH 3.0 incubated for 18 hrs by UPLC analysis; type: physicochemical
[8] = Solubility in 100 mM glycylglycine buffer at pH 4.0 incubated for 18 hrs by UPLC analysis; type: physicochemical
[9] = Solubility in 100 mM bistrispropane buffer at pH 6.0 incubated for 18 hrs by UPLC analysis; type: physicochemical
[10] = Solubility in 100 mM bistrispropane buffer at pH 6.5 incubated for 18 hrs by UPLC analysis; type: physicochemical
[11] = Solubility in 100 mM bistrispropane buffer at pH 7.0 incubated for 18 hrs by UPLC analysis; type: physicochemical
[12] = Solubility in 100 mM bistrispropane buffer at pH 7.5 incubated for 18 hrs by UPLC analysis; type: physicochemical
[13] = Solubility in 100 mM bistrispropane buffer at pH 8.0 incubated for 18 hrs by UPLC analysis; type: physicochemical
[14] = target: T1, Amylin receptor AMY3; CALCR/RAMP3; experiment: Displacement of [125I]-labeled rat amylin from human amylin receptor expressed in BHK570 cell membranes co-expressing RAMP3 incubated for 120 mins by scintillation proximity assay
[15] = target: T3, Amylin receptor AMY3; CALCR/RAMP3 (Rattus norvegicus, UniProt P32214+Q9JJ73); experiment: Displacement of [125I]-labeled rat amylin from rat amylin receptor expressed in BHK tkts13 cell membranes co-expressing RAMP3 incubated for 120 mins by scintillation proximity assay
T3 sequence (P32214 whole entry): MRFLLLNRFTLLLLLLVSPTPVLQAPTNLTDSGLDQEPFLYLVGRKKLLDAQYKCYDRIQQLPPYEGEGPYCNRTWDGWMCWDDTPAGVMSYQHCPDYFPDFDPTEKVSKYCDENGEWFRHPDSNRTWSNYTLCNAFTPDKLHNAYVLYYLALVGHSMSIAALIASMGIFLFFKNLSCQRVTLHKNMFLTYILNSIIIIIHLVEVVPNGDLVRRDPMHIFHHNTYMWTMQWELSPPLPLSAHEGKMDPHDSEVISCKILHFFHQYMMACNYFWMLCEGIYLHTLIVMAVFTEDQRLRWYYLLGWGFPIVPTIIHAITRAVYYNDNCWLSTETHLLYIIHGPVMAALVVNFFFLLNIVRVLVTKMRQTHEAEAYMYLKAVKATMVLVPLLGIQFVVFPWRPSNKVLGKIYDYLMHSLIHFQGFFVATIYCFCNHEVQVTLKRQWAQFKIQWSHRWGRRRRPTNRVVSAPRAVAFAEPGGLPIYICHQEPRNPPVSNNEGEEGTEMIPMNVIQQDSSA
T3 sequence (Q9JJ73 whole entry): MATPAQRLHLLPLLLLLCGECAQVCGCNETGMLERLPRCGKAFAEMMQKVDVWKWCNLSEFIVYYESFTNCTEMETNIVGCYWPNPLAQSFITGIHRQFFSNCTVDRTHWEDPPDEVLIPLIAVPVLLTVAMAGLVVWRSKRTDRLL

[16] = Solubility in 100 mM glycylglycine buffer at pH 5.0 incubated for 18 hrs by UPLC analysis; type: physicochemical
[17] = Stability in pH 7.5 buffer assessed as lag time for fibril formation at 1 uM by Thioflavin T based fluorescence assay; type: physicochemical; settings: pH 7.5, 1 µM
[18] = Stability in pH 7.5 buffer assessed as compound recovery at 1 uM by Thioflavin T based fluorescence assay; type: physicochemical; settings: read-out: Drug recovery
Calcitonin receptor [19] = target: T2, Calcitonin receptor; experiment: Displacement of [125I]-labeled human calcitonin from human calcitonin receptor expressed in BHK tkts13 cell membranes incubated for 1 hr by scintillation proximity assay

| SMILES | Activity (Rattus norvegicus [1]) | Activity (Rattus norvegicus [2]) | EC50 [3] | EC50 (Calcitonin receptor [4]) | EC50 [5] | EC50 (Calcitonin receptor [6]) | solubility at 18 h [7] | solubility at 18 h [8] | solubility at 18 h [9] | solubility at 18 h [10] | solubility at 18 h [11] | solubility at 18 h [12] | solubility at 18 h [13] | IC50 [14] | IC50 [15] | solubility at 18 h [16] | Time [17] | remaining at 1 µM [18] | IC50 (Calcitonin receptor [19]) |
| --- | --- | --- | --- | --- | --- | --- | --- | --- | --- | --- | --- | --- | --- | --- | --- | --- | --- | --- | --- |
| CC(C)C[C@H](NC(=O)[C@H](CCCNC(=N)N)NC(=O)CNC(=O)[C@H](CC(C)C)NC(=O)[C@@H](NC(=O)[C@H](C)NC(=O)[C@@H](NC(=O)[C@H](CO)NC(=O)[C@H](CC(C)C)NC(=O)[C@H](CCC(=O)O)NC(=O)[C@H](CO)NC(=O)[C@H](C)NC(=O)CC[C@H](NC(=O)CCCCCCCCCCCCCCCCCCC(=O)O)C(=O)O)[C@@H](C)O)[C@@H](C)O)C(=O)N[C@@H](CO)C(=O)N[C@@H](C)C(=O)N[C@@H](CCC(=O)O)C(=O)N[C@@H](CC(C)C)C(=O)N[C@@H](Cc1cnc[nH]1)C(=O)N[C@@H](CCC(=O)O)C(=O)N[C@@H](CC(C)C)C(=O)N[C@@H](CO)C(=O)N[C@H](C(=O)N[C@@H](Cc1ccc(O)cc1)C(=O)N1CCC[C@H]1C(=O)N[C@@H](CCCNC(=N)N)C(=O)N[C@H](C(=O)N[C@@H](CCC(=O)O)C(=O)N[C@H](C(=O)NCC(=O)N[C@@H](CO)C(=O)NCC(=O)N[C@@H](CO)C(=O)N[C@@H](Cc1ccc(O)cc1)C(N)=O)[C@@H](C)O)[C@@H](C)O)[C@@H](C)O ({C20 diacid-γGlu}-ASELSTATLGRLSAELHELSTYPRTETGSGSY-NH2) | 46% | 68% | 0.02 nM | 0.023 nM | 0.092 nM | 0.04 nM | ≥ 200 µM | ≥ 200 µM | ≥ 200 µM | ≥ 200 µM | ≥ 200 µM | ≥ 200 µM | ≥ 200 µM | 0.159 nM | 0.045 nM | – | – | – | – |
| CC(C)C[C@H](NC(=O)[C@H](C)NC(=O)[C@H](C)NC(=O)[C@@H](NC(=O)[C@H](CO)NC(=O)[C@H](CC(C)C)NC(=O)[C@H](CCC(=O)O)NC(=O)[C@H](CO)NC(=O)[C@H](C)NC(=O)CCCCCCCCCCCCCCC(=O)O)[C@@H](C)O)C(=O)NCC(=O)N[C@@H](CCCNC(=N)N)C(=O)N[C@@H](CC(C)C)C(=O)N[C@@H](CO)C(=O)N[C@@H](C)C(=O)N[C@@H](CCC(=O)O)C(=O)N[C@@H](CC(C)C)C(=O)N[C@@H](Cc1cnc[nH]1)C(=O)N[C@@H](CCC(=O)O)C(=O)N[C@@H](CC(C)C)C(=O)N[C@@H](C)C(=O)N[C@H](C(=O)N[C@@H](CC(C)C)C(=O)N1CCC[C@H]1C(=O)N[C@@H](CCCNC(=N)N)C(=O)N[C@H](C(=O)N[C@@H](CCC(=O)O)C(=O)N[C@H](C(=O)NCC(=O)N[C@@H](CO)C(=O)NCC(=O)N[C@@H](CO)C(=O)N1CCC[C@H]1C(N)=O)[C@@H](C)O)[C@@H](C)O)[C@@H](C)O ({C16 diacid}-ASELSTAALGRLSAELHELATLPRTETGSGSP-NH2) | 28% | -2% | 0.01 nM | – | 0.004 nM | 0.003 nM | ≥ 200 µM | ≥ 200 µM | ≥ 200 µM | ≥ 200 µM | ≥ 200 µM | ≥ 200 µM | ≥ 200 µM | 0.015 nM | 0.064 nM | ≥ 200 µM | – | – | – |
| CC(C)C[C@H](NC(=O)CNC(=O)[C@H](CO)NC(=O)[C@H](C)NC(=O)COCCOCCNC(=O)COCCOCCNC(=O)CC[C@H](NC(=O)CCCCCCCCCCCCCCCCCCC(=O)O)C(=O)O)C(=O)N[C@@H](CO)C(=O)N[C@H](C(=O)N[C@@H](C)C(=O)N[C@H](C(=O)N[C@@H](CC(C)C)C(=O)NCC(=O)N[C@@H](CCCNC(=N)N)C(=O)N[C@@H](CC(C)C)C(=O)N[C@@H](CO)C(=O)N[C@@H](CCC(N)=O)C(=O)N[C@@H](CCC(=O)O)C(=O)N[C@@H](CC(C)C)C(=O)N[C@@H](Cc1cnc[nH]1)C(=O)N[C@@H](CCC(=O)O)C(=O)N[C@@H](CC(C)C)C(=O)N[C@@H](CCC(N)=O)C(=O)N[C@H](C(=O)N[C@@H](Cc1ccc(O)cc1)C(=O)N1CCC[C@H]1C(=O)N[C@@H](CCCNC(=N)N)C(=O)N[C@H](C(=O)N[C@@H](CCC(=O)O)C(=O)N[C@H](C(=O)NCC(=O)N[C@@H](CO)C(=O)NCC(=O)N[C@H](C(=O)N[C@@H](Cc1ccc(O)cc1)C(N)=O)[C@@H](C)O)[C@@H](C)O)[C@@H](C)O)[C@@H](C)O)C(C)C)[C@@H](C)O | 22% | 19% | – | 0.052 nM | 0.123 nM | 0.068 nM | ≥ 200 µM | ≥ 200 µM | ≥ 200 µM | ≥ 200 µM | ≥ 200 µM | ≥ 200 µM | ≥ 200 µM | 0.166 nM | 0.029 nM | – | > 45 h | 100% | – |
| CC(C)C[C@H](NC(=O)[C@H](C)NC(=O)[C@H](C)NC(=O)[C@@H](NC(=O)[C@H](CO)NC(=O)[C@H](CC(C)C)NC(=O)[C@H](CCC(=O)O)NC(=O)[C@H](CO)NC(=O)[C@H](C)NC(=O)CC[C@H](NC(=O)CCCCCCCCCCCCCCCCCCC(=O)O)C(=O)O)[C@@H](C)O)C(=O)NCC(=O)N[C@@H](CCCNC(=N)N)C(=O)N[C@@H](CC(C)C)C(=O)N[C@@H](CO)C(=O)N[C@H](CCC(=O)O)C(=O)N[C@@H](CCC(=O)O)C(=O)N[C@@H](CC(C)C)C(=O)N[C@@H](Cc1cnc[nH]1)C(=O)N[C@@H](CCC(=O)O)C(=O)N[C@@H](CC(C)C)C(=O)N[C@@H](C)C(=O)N[C@H](C(=O)N[C@@H](CC(C)C)C(=O)N1CCC[C@H]1C(=O)N[C@@H](CCCNC(=N)N)C(=O)N[C@H](C(=O)N[C@@H](CCC(=O)O)C(=O)N[C@H](C(=O)NCC(=O)N[C@@H](CO)C(=O)NCC(=O)N[C@@H](CO)C(=O)N1CCC[C@H]1C(N)=O)[C@@H](C)O)[C@@H](C)O)[C@@H](C)O ({C20 diacid-γGlu}-ASELSTAALGRLS[dE]ELHELATLPRTETGSGSP-NH2) | – | – | 0.02 nM | 0.014 nM | 0.094 nM | 0.023 nM | ≥ 200 µM | ≥ 200 µM | ≥ 200 µM | ≥ 200 µM | ≥ 200 µM | ≥ 200 µM | ≥ 200 µM | 0.029 nM | – | ≥ 200 µM | – | – | 0.022 nM |
